Test results: US20110021505A1, “Use of sulfonyl-substituted 2-sulfonylaminobenzoic acid N-phenylamides in the treatment of pain” (SANOFI-AVENTIS DEUTSCHLAND GMBH, priority 2007, published 2011)

System: thermal hyperalgesia of the hind paws induced by injection of carrageenan
Experiment: Anti-hyperalgesic effect in the carrageenan model of inflammatory triggered thermal hyperalgesia in mice after oral administration
Assay type: in vivo, male C57B6 mice
Set-up: key to Statistical evaluation vs. control (AUC1 h-6 h of PWL): ns: not significant; ***: significant, p < 0.0001 (ANOVA & Dunnett)
Conditions: for Mean PWL (paw withdrawal latency) ± SEM: N=6 paws; for Statistical evaluation vs. control (AUC1 h-6 h of PWL): 1-way ANOVA & Dunnett; for AUC1 h-6 h of PWL (mean ± SEM): 1 h to 6 h after carrageenan, N=6
Procedure: In this in vivo model the anti-hyperalgesic effect was determined in mice in which a thermal hyperalgesia of the hind paws had been induced by injection of carrageenan, by measuring the paw withdrawal latency (PWL), i.e. the time until the mouse withdrew its hind paw from a heated spot of the ground. These experiments and all other animal experiments were performed in accordance with animal protection law and guidelines for the use of experimental animals.
Three test groups and one control group of animals were used each consisting of three male C57B6 mice. 1 h before injection of carrageenan, either the test compound or vehicle was administered to the animals orally by gavage. In the test groups, mice received 100 μl/10 g body weight of a suspension of the test compound in vehicle MC/T80 comprising 0.1 mg/ml, 0.3 mg/ml or 1 mg/ml (prepared as described in pharmaceutical example A) for attaining a dosage of 1 mg/kg body weight, 3 mg/kg body weight and 10 mg/kg body weight, respectively. In the control group, mice analogously received 100 μl/10 g body weight of vehicle MC/T80. For induction of hind paw inflammatory pain, then in all groups carrageenan (Sigma, Deisenhofen, Germany) at a concentration of 2% in 10 μl of saline was injected into the plantar aspect of both hind paws of the mice under slight general isofluran anesthesia. 1 h before injection of carrageenan, i.e. immediately before administration of the test compound or vehicle, and 1 h, 2 h, 4 h and 6 h after injection of carrageenan, thermal hyperalgesia was determined.
Thermal hyperalgesia was determined by measuring the paw withdrawal latency (PWL) by means of the automatic plantar test, first described for rats in K. Hargreaves et al., Pain 32 (1988), 77-88, and used in an adapted version fitted to mice described in H. Gühring et al., J. Neurosci. 20 (2000), 6714-6720. To restrict animal movement, 10.5×13.0×4.5 cm test cages were used. Instead of a glass floor, a metal grid bottom was used. PWL (in seconds) was determined on exposure of the paw to a defined thermal stimulus using a commercially available apparatus (Plantar Test, Ugo Basile Biological Research Apparatus, Comerio, Italy) fitted with a mini camera to ensure proper placement of the infrared heat below the hind paw of interest. The timer which measured the duration of reflected infrared light by the hind paw was started by the investigator and stopped once the animal shook the affected paw. A cut-off was set at 16 seconds to prevent tissue damage. For each hind paw and each time point, the mean of three to four PWL measurements was determined.
The given PWL values (in seconds) are the mean±SEM (standard error of the mean) of the PWL values obtained for each hind paw of each animal (N (number of paws)=6) of the indicated dosage group at the time points 1 h, 2 h, 4 h and 6 h after injection of carrageenan, as well as the baseline PWL values (BL) determined 1 h before administration of the test compound or vehicle and injection of carrageenan.
For the statistical analysis, PWL values were used in two ways, first with a 2-way ANOVA test based on the PWL values and second with a 1-way ANOVA test based on the area under the curve (AUC) values for the time period of 6 h after injection of carrageenan. A repeated measures 2-way ANOVA test (factor treatment and repeated measures factor time) was performed on PWL measurements. In case the interaction (treatment×time) was statistically significant, a Winer complementary analysis was done to investigate the effect of treatment for each time point. A Dunnett's test was used to study the potential differences between the control group and the test groups. […]

## O=C(Nc1ccc(S(=O)(=O)N2CCOCC2)cc1)c1cc(Cl)ccc1NS(=O)(=O)c1ccc(Cl)s1.[Na] [Example 94, 5-Chloro-2-(5-chloro-thiophene-2-sulfonylamino)-N-(4-(morpholine-4-sulfonyl)-phenyl)-benzamide sodium salt]
1 mg/kg body weight group, BL baseline before administration and carrageenan
  Mean PWL (paw withdrawal latency) ± SEM: 11.08 ± 0.40 s
1 mg/kg body weight oral
  Statistical evaluation vs. control (AUC1 h-6 h of PWL): ns
  AUC1 h-6 h of PWL (mean ± SEM): 19.57 ± 2.19
1 mg/kg body weight oral, 1 h after carrageenan
  Mean PWL (paw withdrawal latency) ± SEM: 4.08 ± 0.62 s
1 mg/kg body weight oral, 2 h after carrageenan
  Mean PWL (paw withdrawal latency) ± SEM: 3.80 ± 0.28 s
1 mg/kg body weight oral, 4 h after carrageenan
  Mean PWL (paw withdrawal latency) ± SEM: 3.98 ± 0.79 s
1 mg/kg body weight oral, 6 h after carrageenan
  Mean PWL (paw withdrawal latency) ± SEM: 3.86 ± 0.48 s
3 mg/kg and 10 mg/kg body weight oral, from 1 h to 4 h after carrageenan injection
  Anti-hyperalgesic effect on PWL vs. control (2-way ANOVA, Dunnett): Statistically significant anti-hyperalgesic effects
3 mg/kg body weight group, BL baseline before administration and carrageenan
  Mean PWL (paw withdrawal latency) ± SEM: 10.69 ± 0.27 s
3 mg/kg body weight oral
  Statistical evaluation vs. control (AUC1 h-6 h of PWL): *** (significant, p < 0.0001 (ANOVA & Dunnett))
  AUC1 h-6 h of PWL (mean ± SEM): 44.87 ± 1.21
3 mg/kg body weight oral, 1 h after carrageenan
  Mean PWL (paw withdrawal latency) ± SEM: 8.42 ± 0.53 s
3 mg/kg body weight oral, 2 h after carrageenan
  Mean PWL (paw withdrawal latency) ± SEM: 10.16 ± 0.33 s
3 mg/kg body weight oral, 4 h after carrageenan
  Mean PWL (paw withdrawal latency) ± SEM: 10.84 ± 0.63 s
3 mg/kg body weight oral, 6 h after carrageenan
  Mean PWL (paw withdrawal latency) ± SEM: 3.74 ± 0.47 s
10 mg/kg body weight group, BL baseline before administration and carrageenan
  Mean PWL (paw withdrawal latency) ± SEM: 10.97 ± 0.40 s
10 mg/kg body weight oral
  Statistical evaluation vs. control (AUC1 h-6 h of PWL): *** (significant, p < 0.0001 (ANOVA & Dunnett))
  AUC1 h-6 h of PWL (mean ± SEM): 48.70 ± 2.06
10 mg/kg body weight oral, 1 h after carrageenan
  Mean PWL (paw withdrawal latency) ± SEM: 12.46 ± 0.91 s
10 mg/kg body weight oral, 2 h after carrageenan
  Mean PWL (paw withdrawal latency) ± SEM: 11.24 ± 0.77 s
10 mg/kg body weight oral, 4 h after carrageenan
  Mean PWL (paw withdrawal latency) ± SEM: 11.11 ± 0.54 s
10 mg/kg body weight oral, 6 h after carrageenan
  Mean PWL (paw withdrawal latency) ± SEM: 3.40 ± 0.46 s
